Experimental findings from patent US20210363110A1, “4-METHYLDIHYDROPYRIMIDINONE COMPOUNDS AND PHARMACEUTICAL USE THEREOF” (Japan Tobacco Inc., priority 2018, published 2021) are described below.

Molecules are shown by their SMILES.

The target in data set [1] is T1, human RORγ (Homo sapiens, UniProt P51449).
T1 construct: from Ser253 to Lys518 for human RORγ; expressed in transfected cells; host or cells: CHO cells (transient co-transfection with pG5-Luc)
T1 sequence (P51449 253-518): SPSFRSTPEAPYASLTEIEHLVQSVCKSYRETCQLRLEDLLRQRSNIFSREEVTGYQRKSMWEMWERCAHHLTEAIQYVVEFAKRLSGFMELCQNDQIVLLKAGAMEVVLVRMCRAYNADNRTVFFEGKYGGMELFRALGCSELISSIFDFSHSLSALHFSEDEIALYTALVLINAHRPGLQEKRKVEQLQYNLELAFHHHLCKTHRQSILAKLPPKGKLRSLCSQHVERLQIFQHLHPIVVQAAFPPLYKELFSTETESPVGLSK
The data set is described as follows: Reporter gene assay for inhibitory effect against RORγ transcriptional activity (GAL4-hRORγ LBD, luciferase, CHO cells). As to conditions: pFA/hRORγ + pG5-Luc, 2 days incubation. The format is cell-based. The procedure:
(§1) Inhibitory effect against RORγ transcriptional activity was assessed by reporter gene assay for test compounds.
(§2) cDNAs encoding human and mouse RORγ ligand binding domains (LBD) were obtained based on the sequences of human RORγ (Genbank registered number NM_005060.3) and mouse RORγ (Genbank registered number NM_011281.2) (LBD sequences: from Ser253 to Lys518 for human RORγ; from Ile251 to Lys516 for mouse RORγ).
(§3) LBD cDNAs of human and mouse RORγ were inserted into pFA-CMV vector (Agilent Technologies, Inc.), which expresses GAL4-DNA binding domain fusion protein. The resulting plasmids are hereinafter referred to as pFA/hRORγ plasmid and pFA/mRORγ plasmid, respectively. […]
(§4) Cell viability was tested by luminescence method with CellTiter-Glo (Promega). […] Ten minutes after the addition, luminescence was measured for each well with a microplate reader. The luminescence count in the cells treated with 0.2% DMSO alone was defined as 100%, and the cell viability after treatment with the test compound was calculated as a percentage (%-of-control) based on the value of 0.2% DMSO alone. When the cell viability was 70% or less, a test compound was assessed to have cytotoxicity.
(§5) RORγ transcriptional activity was detected as the intracellular luciferase activity using SteadyLite HTS Reporter Gene Assay System (Perkin Elmer). […]
A general note: In a reporter assay the amount or activity of a reporter protein is the signal.

Data set [2] can be described thus: Metabolic stability in liver microsomes, mouse. As to conditions: residual ratio of unreacted substance, 0.2 mg/mL microsomes, NADPH generating system. The format is in vitro ADME. The procedure:
(§6) A test solution was prepared by diluting 10 mM DMSO solution of a test substance with acetonitrile by 100 times.
(§7) Human and animal liver microsomes (SEKISUI XENOTECH; Human (H2610), Rat (R1000), Mouse (M1000), Monkey (P2000), Dog (D1000)) were adjusted with potassium phosphate buffer (pH 7.4) to 0.2 mg/mL in the reaction system. Then, 1% of the solution of a test substance prepared was added to the reaction system. Thereto was added an NADPH generating system (prepared according to the method of Non Patent Literature 28), and the metabolic reaction was initiated. At a designated time, 0.1% formic acid-acetonitrile/water (3:1) was added thereto, and the reaction was terminated.
(§8) The sample after termination of the reaction was separated by centrifugation (1400 g, 20 min.), and then the supernatant was measured by LC/MS (UPLC-SQD (waters)) to calculate a residual ratio of unreacted substances.

Data set [3] is described as follows: Metabolic stability in liver microsomes, dog. The format is in vitro ADME. As to conditions: residual ratio of unreacted substance, 0.2 mg/mL microsomes, NADPH generating system. As to the method: as §6, §7, §8
For orientation: Liver microsomes are a subcellular fraction often used to study metabolism.

Data set [4] deals with T2, mouse RORγ (Mus musculus, UniProt P51450).
T2 construct: from Ile251 to Lys516 for mouse RORγ; expressed in transfected cells; host or cells: CHO cells (transient co-transfection with pG5-Luc)
T2 sequence (P51450 251-516): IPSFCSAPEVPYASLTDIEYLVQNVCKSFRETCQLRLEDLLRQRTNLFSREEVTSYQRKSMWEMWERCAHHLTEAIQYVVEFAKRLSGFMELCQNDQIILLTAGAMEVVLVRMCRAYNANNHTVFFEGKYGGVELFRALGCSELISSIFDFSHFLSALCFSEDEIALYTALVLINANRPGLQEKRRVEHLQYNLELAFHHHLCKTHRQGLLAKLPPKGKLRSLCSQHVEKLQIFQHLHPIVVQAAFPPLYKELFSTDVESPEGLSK
The data set is described as follows: Reporter gene assay for inhibitory effect against RORγ transcriptional activity (GAL4-mRORγ LBD, luciferase, CHO cells). The format is cell-based. As to conditions: pFA/mRORγ + pG5-Luc, 2 days incubation. As to the method:
as §1, §2, §3, §4, §5

The term EC50 denotes the concentration giving half of the maximal effect.

On to `CC(C)C1=CN(C23CC(C(=O)O)(C2)C3)C(=O)N[C@@]1(C)c1ccc([C@@H]2C[C@H]2C(C)(C)C)c(Cl)c1` [Compound (1), 3-{(S)-4-[4-((1R,2R)-2-tert-Butyl-cyclopropyl)-3-chloro-phenyl]-5-isopropyl-4-methyl-2-oxo-3,4-dihydro-2H-pyrimidin-1-yl}bicyclo[1.1.1]pentane-1-carboxylic acid], for which the concentration for a half-maximal effect (EC50) in data set [1] and in data set [4] was 23 nM each time. For the same compound, the “Metabolic stability in liver microsomes at 60 min., Mouse” value in data set [2] is 95%. Moreover, the “Metabolic stability in liver microsomes at 60 min., Dog” value in data set [3] stood at 98%.
As for `CC[C@H](C)C1=CN(C23CC(C(=O)O)(C2)C3)C(=O)N[C@@]1(C)c1ccc([C@@H]2C[C@H]2C(C)(C)C)c(Cl)c1` [Compound (2), 3-{(S)-5-((S)-sec-Butyl)-4-[4-((1R,2R)-2-tert-butyl-cyclopropyl)-3-chloro-phenyl]-4-methyl-2-oxo-3,4-dihydro-2H-pyrimidin-1-yl}bicyclo[1.1.1]pentane-1-carboxylic acid], the EC50 in data set [1] was 14 nM; in data set [4], 29 nM. In addition, the “Metabolic stability in liver microsomes at 60 min., Mouse” value in data set [2] was determined as 98%. Moreover, the “Metabolic stability in liver microsomes at 60 min., Dog” value in data set [3] came out at 95%.
